Measurements published in patent US11072741B2, “Optically anisotropic layer, method for producing the optically anisotropic layer, a laminate, polarizing plate, display device, liquid crystal compound, method for producing the liquid crystal compound, and carboxylic acid compound” (FUJIFILM Corporation, priority 2014, dated 2021).

How the values were obtained:
[1] = Evaluation of phase transition temperature by polarizing microscope; assay type: physicochemical; conditions: for TNi(° C.) Isotropic Phase Transition Point / Tsm—N(° C.) Sm—N Transition Point: during temperature increase; for Phase Transition Temperature Evaluation of Decrease: versus comparative compound with the same Ar and side chain portion of Formula (Ia)
Text: Here, the temperature at which the compound transitions from the smectic phase to the nematic phase may be easily measured by observation of the composition employing polarized light microscopy. For example, in the nematic phase, a schlieren texture specific to the nematic phase is observed, while the texture transitions to a focal conic fan texture in a smectic A phase. Therefore, the phase transition temperature can be measured by observing the textures with a polarizing microscope while increasing or decreasing the temperature.
The phase transition temperatures of the synthesized liquid crystal compounds of the Examples and Comparative Examples were observed using a polarizing microscope to evaluate the degrees of temperature decrease. Specifically, the compounds of the Examples were compared to the compounds of the Comparative Examples, which have different structures for the side chain portions thereof. That is, the phase transition temperature of a compound of a Comparative Example having Ar (the aromatic ring at the center of General Formula 1) in common with the Examples and a side chain portion represented by Formula (Ia) below was used as a reference. Evaluations of A through C were assigned according to the degree of temperature decrease from the reference phase transition temperature.
(§1) For example, compound (I-1) and (I-2) were compared to Comparative Compound (Ia-1), and Compound (III-3) was compared to Comparative Compound (IIIa-3). The evaluation was carried out based on the following criteria.
A: decrease in melting point or Sm-N (smectic-nematic) transition temperature is 20° C. or greater
B: decrease in melting point or Sm-N (smectic-nematic) transition temperature is 5° C. or greater and less than 20° C.
C: decrease in melting point or Sm-N (smectic-nematic) transition temperature is less than 5° C.
With respect to the phase transition temperature, the numerical value in parentheses represents the numerical value during temperature decrease, and other numerical values represent a numerical value during temperature increase.

[2] = Measurement and evaluation of solubility in MEK and CPN; assay type: physicochemical; conditions: for Solubility CPN wt %: cyclopentanone; for Solubility CPN wt % / Solubility MEK wt %: room temperature, visual observation, 5 wt % increments; for Solubility MEK wt %: methyl ethyl ketone; for Solubility Evaluation: versus comparative compound with the same Ar and side chain portion of Formula (Ia)
Method: Solubility measurements of the synthesized liquid crystal compounds were conducted by the following method. 50 mg of each compound was weighted into a 1.5 mL sample bottle, and solvent was added until the solid component became 40 wt % (75 mg). The solubility was determined to be 40 wt % if clear under visual observation after shaking well manually at room temperature. If undissolved residue was present, solvent was added such that the solid component became 35 wt % (+18 mg). The solubility was determined to be 35 wt % if clear under visual observation after shaking well manually at room temperature. If undissolved residue was present, solvent was added such that the solid component became 30 wt %. Similar operations were performed in increments of 5 wt %, and repeated until the solid component became 5 wt %. If undissolved residue was present, the solubility was determined to be less than 5 wt % (<5 wt %), and measurements were completed. MEK (methyl ethyl ketone) and CPN (cyclopentanone) were utilized as solvents for measuring solubility.
The measured values of solubility were evaluated. The evaluations were conducted by using solubility of a compound of a Comparative Example having Ar (the aromatic ring at the center of General Formula 1) in common with the Examples and a side chain portion represented by Formula (Ia) as a reference, in a manner similar to that in the evaluation of the phase transition temperature. Evaluations of A through C were assigned according to the degree of improvement in solubility from the reference solubility.
as §1
A: solubility improved twofold or greater in plural solvents or a single solvent
B: solubility was the same or improved up to twofold in plural solvents or a single solvent
C: no improvement in solubility in plural solvents or a single solvent

| SMILES | TNi(° C.) Isotropic Phase Transition Point [1] | Tsm—N(° C.) Sm—N Transition Point [1] [°C] | Solubility CPN wt % [2] [wt %] | Solubility MEK wt % [2] [wt %] | melting point [°C] | Phase Transition Temperature Evaluation of Decrease [1] | Solubility Evaluation [2] |
| --- | --- | --- | --- | --- | --- | --- | --- |
| C=CC(=O)OCCCCCCOc1ccc(OC(=O)[C@H]2CC[C@H](C(=O)Oc3ccc(OC(=O)[C@H]4CC[C@H](C(=O)Oc5ccc(OCCCCCCOC(=O)C=C)cc5)CC4)c4c3SC(=C(C#N)C#N)S4)CC2)cc1 [Ia-1] | >210 ^ ° C. | 183 | 10 | <5 | 148 | – | – |
| C=CC(=O)OCCCCCCOc1ccc(OC(=O)[C@H]2CC[C@H](C(=O)Oc3ccc(OC(=O)[C@H]4CC[C@H](C(=O)Oc5ccc(OCCCCCCOC(=O)C=C)cc5)CC4)c(/C=N/Nc4nc5ccccc5s4)c3)CC2)cc1 [VIa-1] | 279 °C | – | 20 | 10 | 163 | – | – |

Now from value to compound, other results behind:

| TNi(° C.) Isotropic Phase Transition Point [1] | Tsm—N(° C.) Sm—N Transition Point [1] [°C] | Solubility CPN wt % [2] [wt %] | Solubility MEK wt % [2] [wt %] | melting point [°C] | SMILES | Phase Transition Temperature Evaluation of Decrease [1] | Solubility Evaluation [2] |
| --- | --- | --- | --- | --- | --- | --- | --- |
| 195 °C | 145 | 25 | 10 | 130 | C=C(C)C(=O)OCCOCCNC(=O)OCCc1ccc(OC(=O)[C@H]2CC[C@H](C(=O)Oc3ccc(OC(=O)[C@H]4CC[C@H](C(=O)Oc5ccc(CCOC(=O)NCCOCCOC(=O)C(=C)C)cc5)CC4)c4c3SC(=C(C#N)C#N)S4)CC2)cc1 [Compound I-7] | B (decrease in melting point or Sm-N (smectic-nematic) transition temperature is 5 °C or greater and less than 20° C.) | A (solubility improved twofold or greater in plural solvents or a single solvent) |
| 168 °C | 130 | 20 | 10 | 105 | C=C(C)C(=O)OCCOC(=O)CCC(=O)OCCc1ccc(OC(=O)[C@H]2CC[C@H](C(=O)Oc3ccc(OC(=O)[C@H]4CC[C@H](C(=O)Oc5ccc(CCOC(=O)CCC(=O)OCCOC(=O)C(=C)C)cc5)CC4)c4c3SC(=C(C#N)C#N)S4)CC2)cc1 [Compound I-2] | A (decrease in melting point or Sm-N (smectic-nematic) transition temperature is 20 °C or greater) | A (solubility improved twofold or greater in plural solvents or a single solvent) |
| 172 °C | 146 | 20 | 10 | 110 | C=CC(=O)OCCOC(=O)COCC(=O)OCCc1ccc(OC(=O)[C@H]2CC[C@H](C(=O)Oc3ccc(OC(=O)[C@H]4CC[C@H](C(=O)Oc5ccc(CCOC(=O)COCC(=O)OCCOC(=O)C=C)cc5)CC4)c4c3SC(=C(C#N)C#N)S4)CC2)cc1 [Compound I-6] | A (decrease in melting point or Sm-N (smectic-nematic) transition temperature is 20 °C or greater) | A (solubility improved twofold or greater in plural solvents or a single solvent) |
| 172 °C | 146 | 40 | 15 | 110 | C=CC(=O)OCCOCCOC(=O)CCC(=O)OCCc1ccc(OC(=O)[C@H]2CC[C@H](C(=O)Oc3ccc(OC(=O)[C@H]4CC[C@H](C(=O)Oc5ccc(CCOC(=O)CCC(=O)OCCOCCOC(=O)C=C)cc5)CC4)c4c3SC(=C(C#N)C#N)S4)CC2)cc1 [Compound I-5] | A (decrease in melting point or Sm-N (smectic-nematic) transition temperature is 20 °C or greater) | A (solubility improved twofold or greater in plural solvents or a single solvent) |
